Measurements reported in US10300064B2, “Organic compounds” (INTRA-CELLULAR THERAPIES, INC., priority 2014, dated 2019).
pIC50: −log10 of the molar value.

Tests used:
Wistar rats = assay: Object recognition task, memory performance of Wistar rats; type: in vivo, rat; settings: male Wistar rats, oral, 2 h before learning
Experimental: The Effects of Treatment with PDE2 Inhibitors on Memory Performance of Wistar Rats in the Object Recognition Task
The memory-enhancing effects of the compound of Example 1 are tested in an animal model of cognition, the object recognition task. See, Ennaceur, A., Delacour, J., 1988. A new one-trial test for neurobiological studies of memory in rats. 1: Behavioral data. Behav. Brain Res. 31, 47-59. Rats remember which object they have explored in a previous trial when they are tested one hour later. However, when a 24 h inter-trial interval is used, they are not able to remember which object was presented to them in the first trial. It is tested whether the compound of Example 1 would attenuate this time-induced object memory deficit, when given 2 h before the first trial. The compounds are given to 2-3-months-old male Wistar rats.
The compound of Example 1 is injected orally (2 ml/kg) 2 h before learning, at doses of 0, 0.3, 1, 3 and 10 mg/kg.

[1] = Pharmacokinetic study in mice (plasma and brain availability); type: in vivo; settings: single oral dose 10 mg/kg PO, 0.25-4h, FIG. 1
Experimental: FIG. 1 illustrats the plasma and brain levels in mice dosed with 10 mg/kg P.O. of the compound of Example 1 over time.
Mice are given a single oral dose of the compound to be tested (10 mg/kg, PO) and plasma and brain availability are measured (0.25-4h) using HPLC and LC-MS using methods analogous to those described in Zhao et al., J. Chromatogr. B. Analyt. Technol. Biomed. Life Sci. (2005) 819(1):73-80 and Appels, N. M., et al., Rapid Commun. Mass Spec. 2005. 19(15): p. 2187-92.

r-hPDE2A = molecular target: T1, r-hPDE2A (Homo sapiens, UniProt O00408); assay: Measurement of PDE2 inhibition in vitro (IMAP fluorescence polarization, FL-cAMP substrate); type: biochemical; settings: 1 μM cGMP
T1 construct: host or cells: HEK293 cells, transient transfection; soluble cytosolic fraction used
T1 sequence (O00408 whole entry): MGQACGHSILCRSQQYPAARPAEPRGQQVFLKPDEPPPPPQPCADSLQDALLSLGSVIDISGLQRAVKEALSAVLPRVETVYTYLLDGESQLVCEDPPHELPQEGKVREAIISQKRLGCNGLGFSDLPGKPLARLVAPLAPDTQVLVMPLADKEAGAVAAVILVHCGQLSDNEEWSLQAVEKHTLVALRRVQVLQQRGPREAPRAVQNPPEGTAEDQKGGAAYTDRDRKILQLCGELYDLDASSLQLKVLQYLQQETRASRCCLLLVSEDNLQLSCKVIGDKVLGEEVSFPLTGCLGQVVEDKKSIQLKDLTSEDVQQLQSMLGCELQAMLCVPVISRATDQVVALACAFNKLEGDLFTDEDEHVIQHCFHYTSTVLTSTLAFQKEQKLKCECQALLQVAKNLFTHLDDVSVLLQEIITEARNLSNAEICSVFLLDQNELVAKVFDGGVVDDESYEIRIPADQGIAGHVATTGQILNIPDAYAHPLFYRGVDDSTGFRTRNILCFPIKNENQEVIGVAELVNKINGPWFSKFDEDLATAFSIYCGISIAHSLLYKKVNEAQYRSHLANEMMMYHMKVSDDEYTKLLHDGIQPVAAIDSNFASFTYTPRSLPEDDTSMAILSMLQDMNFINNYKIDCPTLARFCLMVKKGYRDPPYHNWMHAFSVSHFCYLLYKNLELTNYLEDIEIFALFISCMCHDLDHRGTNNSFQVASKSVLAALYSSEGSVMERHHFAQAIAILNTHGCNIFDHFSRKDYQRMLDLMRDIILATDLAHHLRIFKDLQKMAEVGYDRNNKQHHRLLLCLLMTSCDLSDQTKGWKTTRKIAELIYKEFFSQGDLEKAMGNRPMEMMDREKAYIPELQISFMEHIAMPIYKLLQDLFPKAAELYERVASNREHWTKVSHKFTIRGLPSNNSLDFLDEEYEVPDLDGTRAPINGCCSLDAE
Experimental: Measurement of PDE2 Inhibition In Vitro
r-hPDE2A (Accession No. NM_002599, Homo sapiens phosphodiesterase 2A, cGMP-stimulated, transcript variant 1) A mammalian expression cloning vector with recombinant cDNA copy of the gene is purchased from Origene. Protein is expressed via transient transfection of HEK293 cells. The cells are harvested at 48 hours after transfection, washed once with TBS buffer (50 mM Tris-HCl, pH 7.5, 150 mM NaCl), then lysed by sonication in cold homogenization buffer (50 mM Tris-HCl, pH 7.5, 5 mM MgCl2, lx protease inhibitor cocktail). The homogenate is centrifuged for […] at 15,000 g at 4° C. to obtain the soluble cytosolic fraction. The protein concentration of the cytosol is determined using BCA Protein Assay Kit (Pierce) with bovine serum albumin as a standard.
PDE2A is assayed with FL-cAMP as substrate. An enzyme titration is first performed to determine the working concentration of PDE. The concentration of the enzyme giving activity of 100 ΔmP in the absence of inhibitor is deemed an appropriate working concentration for PDE.
PDE enzyme is diluted in a standard reaction buffer (10 mM Tris-HCl pH 7.2, 10 mM MgCl2, 0.1% BSA, 0.05% NaN3) according to the titration curve. For PDE2 assay the reaction buffer is supplemented with 1 μM cGMP to fully activate the enzyme. 99 μl of diluted enzyme solution is added into each well in a flat bottom 96-well polystyrene plate and then 1 μl of test compound dissolved in 100% DMSO is added. The compounds are mixed and pre-incubated with the enzyme for 10 min at room temperature.
The FL-cNMP conversion reaction is initiated by addition of substrate (45 nM final). Enzyme and inhibitor mix (16 μl) and substrate solution (4 μl of 0.225 μM) are combined in a 384-well microtiter plate. The reaction is incubated in the dark at room temperature for 15 min. The reaction is halted by addition of 60 μl of binding reagent (1:400 dilution of IMAP beads in binding buffer supplemented with 1:1800 dilution of antifoam) to each well of the 384-well plate. The plate is incubated at room temperature for 1 hour to allow IMAP binding to proceed to completion, and then placed in an Envision multimode microplate reader (PerkinElmer, Shelton, Conn.) to measure the fluorescence polarization (Δmp).
A decrease in cAMP concentration, measured as decreased Amp, is indicative of inhibition of PDE activity. […] IC50 values are estimated using nonlinear regression software, fitting a four-parameter one-site dose-response model (XLFit; IDBS, Cambridge, Mass.). […]
The total fluorescence intensity of each sample well is measured to calculate the average and standard deviation. If the total fluorescence intensity of any sample well is not within the range of Average±3SD, the mp value of that particular well is discarded. […]

PDE7B = PDE7B (Homo sapiens, UniProt Q9NP56); assay: Selectivity for PDE2 over PDE7B; type: biochemical
Chain of PDE7B (Q9NP56 whole entry, species assumed): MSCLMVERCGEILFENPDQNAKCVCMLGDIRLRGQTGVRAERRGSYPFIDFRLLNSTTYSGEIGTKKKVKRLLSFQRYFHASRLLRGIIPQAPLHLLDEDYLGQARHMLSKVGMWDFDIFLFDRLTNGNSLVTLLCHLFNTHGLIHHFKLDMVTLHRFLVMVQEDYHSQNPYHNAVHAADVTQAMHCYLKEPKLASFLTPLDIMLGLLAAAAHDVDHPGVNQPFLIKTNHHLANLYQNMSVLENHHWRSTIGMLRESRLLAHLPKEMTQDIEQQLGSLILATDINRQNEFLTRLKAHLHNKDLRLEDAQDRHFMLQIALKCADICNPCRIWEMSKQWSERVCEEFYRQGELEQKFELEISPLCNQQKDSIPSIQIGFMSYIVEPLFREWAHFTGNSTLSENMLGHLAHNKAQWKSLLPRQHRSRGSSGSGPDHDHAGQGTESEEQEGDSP
Experimental: (§1) Using the IMAP procedure described or similarly described above, we screened a proprietary PDE-focused compound library to identify novel compounds with nanomolar PDE2 inhibitory activities. […] The compounds are moreover selective for PDE2; the compound of Example 4 is tested and shown to be selective for PDE2 over PDE1, PDE3, PDE4D, PDE5, PDE6, PDE7B, PDE8A, PDE9A, PDE10A and PDE11A by greater than 20-fold.

PDE4D = PDE4D (Homo sapiens, UniProt Q08499); assay: Selectivity for PDE2 over PDE4D; type: biochemical
Chain of PDE4D (Q08499 whole entry, species assumed): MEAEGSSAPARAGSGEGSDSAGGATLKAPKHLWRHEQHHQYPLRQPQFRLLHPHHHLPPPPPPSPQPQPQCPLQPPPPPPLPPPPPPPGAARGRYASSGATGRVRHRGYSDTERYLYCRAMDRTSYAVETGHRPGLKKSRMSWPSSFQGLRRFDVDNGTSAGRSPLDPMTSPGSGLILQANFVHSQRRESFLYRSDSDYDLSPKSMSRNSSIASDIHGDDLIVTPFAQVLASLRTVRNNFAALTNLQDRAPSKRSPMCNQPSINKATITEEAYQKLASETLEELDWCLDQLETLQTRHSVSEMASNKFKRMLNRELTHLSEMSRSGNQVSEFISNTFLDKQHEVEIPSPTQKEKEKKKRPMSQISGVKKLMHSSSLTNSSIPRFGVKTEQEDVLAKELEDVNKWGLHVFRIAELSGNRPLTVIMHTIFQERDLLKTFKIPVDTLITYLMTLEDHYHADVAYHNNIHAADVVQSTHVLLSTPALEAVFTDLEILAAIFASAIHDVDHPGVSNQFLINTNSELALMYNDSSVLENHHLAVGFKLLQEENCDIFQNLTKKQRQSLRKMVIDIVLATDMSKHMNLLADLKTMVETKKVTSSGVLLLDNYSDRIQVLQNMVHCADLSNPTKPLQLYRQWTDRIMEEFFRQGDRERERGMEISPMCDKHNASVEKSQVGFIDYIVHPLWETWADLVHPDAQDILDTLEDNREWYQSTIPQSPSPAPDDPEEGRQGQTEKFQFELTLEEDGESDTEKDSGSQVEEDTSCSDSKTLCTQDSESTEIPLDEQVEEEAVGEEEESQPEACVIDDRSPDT
Experimental: as §1

PDE3 = assay: Selectivity for PDE2 over PDE3; type: biochemical
Experimental: as §1

PDE8A = PDE8A (Homo sapiens, UniProt O60658); assay: Selectivity for PDE2 over PDE8A; type: biochemical
Experimental: as §1

PDE9A = PDE9A (Homo sapiens, UniProt O76083); assay: Selectivity for PDE2 over PDE9A; type: biochemical
Chain of PDE9A (O76083 whole entry, species assumed): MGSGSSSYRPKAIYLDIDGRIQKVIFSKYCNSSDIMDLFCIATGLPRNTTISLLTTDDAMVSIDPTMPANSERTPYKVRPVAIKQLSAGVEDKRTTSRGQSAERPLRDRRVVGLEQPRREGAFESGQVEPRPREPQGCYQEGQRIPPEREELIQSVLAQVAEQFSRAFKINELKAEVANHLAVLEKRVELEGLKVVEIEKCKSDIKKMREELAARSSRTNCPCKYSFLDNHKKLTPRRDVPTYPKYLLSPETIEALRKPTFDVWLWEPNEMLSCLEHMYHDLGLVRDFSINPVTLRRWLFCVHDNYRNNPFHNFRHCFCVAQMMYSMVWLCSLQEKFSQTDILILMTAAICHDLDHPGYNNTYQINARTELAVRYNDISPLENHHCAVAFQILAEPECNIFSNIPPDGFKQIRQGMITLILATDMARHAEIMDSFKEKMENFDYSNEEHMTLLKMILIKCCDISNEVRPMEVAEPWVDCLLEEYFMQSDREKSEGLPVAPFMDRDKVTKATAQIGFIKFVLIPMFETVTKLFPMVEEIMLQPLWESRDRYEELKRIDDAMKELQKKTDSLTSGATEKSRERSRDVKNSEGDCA
Experimental: as §1

PDE11A = PDE11A (Homo sapiens, UniProt Q9HCR9); assay: Selectivity for PDE2 over PDE11A; type: biochemical
Chain of PDE11A (Q9HCR9 whole entry, species assumed): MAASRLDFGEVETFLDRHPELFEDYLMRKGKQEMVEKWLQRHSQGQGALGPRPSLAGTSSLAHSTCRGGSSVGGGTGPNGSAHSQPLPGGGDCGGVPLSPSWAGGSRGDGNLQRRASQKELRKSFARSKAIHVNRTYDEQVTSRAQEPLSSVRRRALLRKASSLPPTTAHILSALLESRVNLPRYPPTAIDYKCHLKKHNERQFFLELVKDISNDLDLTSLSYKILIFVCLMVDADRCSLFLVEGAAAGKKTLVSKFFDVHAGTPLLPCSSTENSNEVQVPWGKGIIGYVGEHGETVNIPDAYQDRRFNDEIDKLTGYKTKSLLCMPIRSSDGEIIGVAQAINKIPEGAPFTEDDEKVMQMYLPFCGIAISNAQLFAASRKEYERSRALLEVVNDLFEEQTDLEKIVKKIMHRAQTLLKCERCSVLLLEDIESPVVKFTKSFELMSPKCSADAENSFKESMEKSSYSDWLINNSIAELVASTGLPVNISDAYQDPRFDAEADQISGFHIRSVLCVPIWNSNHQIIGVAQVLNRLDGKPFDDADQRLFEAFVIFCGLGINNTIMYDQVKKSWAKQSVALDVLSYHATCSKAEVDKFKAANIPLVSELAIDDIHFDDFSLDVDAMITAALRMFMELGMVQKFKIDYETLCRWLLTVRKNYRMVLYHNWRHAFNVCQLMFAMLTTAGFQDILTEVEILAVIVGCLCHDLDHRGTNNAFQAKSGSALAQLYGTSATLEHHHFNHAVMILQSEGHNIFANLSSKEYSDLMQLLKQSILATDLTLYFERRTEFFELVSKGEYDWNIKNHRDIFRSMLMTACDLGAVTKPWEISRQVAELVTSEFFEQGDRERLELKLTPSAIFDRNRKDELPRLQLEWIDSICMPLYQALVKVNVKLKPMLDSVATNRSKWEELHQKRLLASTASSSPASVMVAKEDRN
Experimental: as §1

PDE10A = PDE10A (Homo sapiens, UniProt Q9Y233); assay: Selectivity for PDE2 over PDE10A; type: biochemical
Chain of PDE10A (Q9Y233 whole entry, species assumed): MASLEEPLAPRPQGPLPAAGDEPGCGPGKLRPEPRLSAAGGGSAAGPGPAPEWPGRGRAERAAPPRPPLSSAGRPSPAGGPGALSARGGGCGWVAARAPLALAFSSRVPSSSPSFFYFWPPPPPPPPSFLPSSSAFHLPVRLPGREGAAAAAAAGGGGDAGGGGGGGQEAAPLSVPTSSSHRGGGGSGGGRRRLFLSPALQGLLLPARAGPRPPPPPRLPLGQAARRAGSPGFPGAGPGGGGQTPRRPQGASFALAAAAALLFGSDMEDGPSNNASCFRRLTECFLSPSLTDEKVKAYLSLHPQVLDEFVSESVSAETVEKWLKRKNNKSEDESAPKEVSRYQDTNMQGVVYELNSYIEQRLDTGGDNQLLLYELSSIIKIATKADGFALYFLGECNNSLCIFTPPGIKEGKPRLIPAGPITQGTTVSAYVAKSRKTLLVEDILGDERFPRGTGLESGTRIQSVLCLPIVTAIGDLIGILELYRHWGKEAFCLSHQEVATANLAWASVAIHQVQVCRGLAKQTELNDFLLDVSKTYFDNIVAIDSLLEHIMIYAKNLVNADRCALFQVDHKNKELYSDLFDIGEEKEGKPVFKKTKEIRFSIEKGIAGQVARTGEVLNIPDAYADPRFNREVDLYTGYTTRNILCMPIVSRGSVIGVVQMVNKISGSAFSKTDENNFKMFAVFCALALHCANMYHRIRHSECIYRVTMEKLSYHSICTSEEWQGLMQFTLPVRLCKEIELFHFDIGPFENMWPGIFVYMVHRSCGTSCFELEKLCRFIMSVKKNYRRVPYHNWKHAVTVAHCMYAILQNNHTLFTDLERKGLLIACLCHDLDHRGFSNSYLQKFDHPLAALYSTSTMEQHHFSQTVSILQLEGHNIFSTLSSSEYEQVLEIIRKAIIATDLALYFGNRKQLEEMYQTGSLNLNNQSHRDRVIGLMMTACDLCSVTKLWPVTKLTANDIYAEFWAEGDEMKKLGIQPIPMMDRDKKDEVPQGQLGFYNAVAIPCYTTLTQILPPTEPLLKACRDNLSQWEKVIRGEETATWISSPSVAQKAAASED
Experimental: as §1

PDE6 = assay: Selectivity for PDE2 over PDE6; type: biochemical
Experimental: as §1

PDE1 = assay: Selectivity for PDE2 over PDE1; type: biochemical
Experimental: as §1

PDE5 = PDE5 (Homo sapiens, UniProt O76074); assay: Selectivity for PDE2 over PDE5; type: biochemical
Experimental: as §1

Cc1nn(-c2cnn(C)c2-c2ccc(C(F)(F)F)cc2)c2c(N3CCC3)ncnc12 [Example 1, 7-(Azetidin-1-yl)-3-methyl-1-(1-methyl-5-(4-(trifluoromethyl)phenyl)-1H-pyrazol-4-yl)-1H-pyrazolo[4,3-d]pyrimidine]
memory improvement (object memory, 24 h inter-trial interval) (Wistar rats; 0.3 mg/kg): intermediate memory improvement | time-dependent forgetting (object memory, 24 h inter-trial interval) (Wistar rats; 1.0 mg/kg): completely prevent the time-dependent forgetting | memory improvement (object memory, 24 h inter-trial interval) (Wistar rats; 3.0 mg/kg): intermediate memory improvement | brain access (plasma and brain availability) [1]: good brain access | pIC50 (r-hPDE2A): 7.64

COc1ccc(-c2c(-n3nc(C)c4ncnc(N5CCC5)c43)cnn2C)c(C)c1 [Example 2, 7-(Azetidin-1-yl)-1-(5-(4-methoxy-2-methylphenyl)-1-methyl-1H-pyrazol-4-yl)-3-methyl-1H-pyrazolo[4,3-d]pyrimidine]
pIC50 (r-hPDE2A): 7.04

Cc1nn(-c2cnn(C)c2-c2ccc(C3CC3)cc2)c2c(N3CCC3)ncnc12 [Example 3, 7-(Azetidin-1-yl)-1-(5-(4-cyclopropylphenyl)-1-methyl-1H-pyrazol-4-yl)-3-methyl-1H-pyrazolo[4,3-d]pyrimidine]
pIC50 (r-hPDE2A): 8.02

CCc1ccc(-c2c(-n3nc(C)c4ncnc(N5CCC5)c43)cnn2C)cc1 [Example 4, 7-(Azetidin-1-yl)-1-(5-(4-ethylphenyl)-1-methyl-1H-pyrazol-4-yl)-3-methyl-1H-pyrazolo[4,3-d]pyrimidine]
selectivity for PDE2 over PDE7B (PDE7B): greater than 20 fold | selectivity for PDE2 over PDE4D (PDE4D): greater than 20 fold | selectivity for PDE2 over PDE3 (PDE3): greater than 20 fold | selectivity for PDE2 over PDE8A (PDE8A): greater than 20 fold | selectivity for PDE2 over PDE9A (PDE9A): greater than 20 fold | selectivity for PDE2 over PDE11A (PDE11A): greater than 20 fold | selectivity for PDE2 over PDE10A (PDE10A): greater than 20 fold | selectivity for PDE2 over PDE6 (PDE6): greater than 20 fold | pIC50 (r-hPDE2A): 7.73 | selectivity for PDE2 over PDE1 (PDE1): greater than 20 fold | selectivity for PDE2 over PDE5 (PDE5): greater than 20 fold
